This note sets out measurements from patent publication US9346761B2, “Arginine methyltransferase inhibitors and uses thereof” (Epizyme, Inc., priority 2013, dated 2016).

In experiment [1] the test system is mono-methyl arginine in RKO cells. The experiment in a line: RKO methylation assay, In Cell Western for mono-methyl arginine and DNA content. The format is cell-based. Conditions: Homo sapiens; In Cell Western, RKO cells, 72 hours, percent activation of mono-methyl arginine signal; read-out: EC30. From the text: RKO adherent cells were purchased from ATCC (American Type Culture Collection), Manassas, Va., USA. DMEM/Glutamax medium, penicillin-streptomycin, heat inactivated fetal bovine serum, 0.05% trypsin and D-PBS were purchased from Life Technologies, Grand Island, N.Y., USA. Odyssey blocking buffer, 800CW goat anti-rabbit IgG (H+L) antibody, and Licor Odyssey infrared scanner were purchased from Licor Biosciences, Lincoln, Nebr., USA. Mono-methyl arginine antibody was purchased from Cell Signaling Technology, Danvers, Mass., USA. Methanol was purchased from VWR, Franklin, Mass., USA. 10% Tween 20 was purchased from KPL, Inc., Gaithersburg, Md., USA. […] was purchased from Biostatus Limited, Leicestershire, UK.
RKO adherent cells were maintained in growth medium (DMEM/Glutamax medium supplemented with 10% v/v heat inactivated fetal bovine serum and 100 units/mL penicillin-streptomycin) and cultured at 37° C. under 5% CO2
Cell Treatment, in Cell Western (ICW) for Detection of Mono-Methyl Arginine and DNA Content. […] Compound (100 nL) from a 96-well source plate was added directly to 384 well cell plate. Plates were incubated at 37° C., 5% CO2 for 72 hours. After three days of incubation, plates were brought to room temperature outside of the incubator for ten minutes and blotted on paper towels to remove cell media. 50 μL of ice cold 100% methanol was added directly to each well and incubated for 30 min at room temperature. After 30 min, plates were transferred to a Biotek EL406 plate washer and washed 2 times with 100 μL per well of wash buffer (1×PBS). Next 60 μL per well of Odyssey blocking buffer (Odyssey Buffer with 0.1% Tween 20 (v/v)) were added to each plate and incubated 1 hour at room temperature. Blocking buffer was removed and 20 μL per well of primary antibody was added (mono-methyl arginine diluted 1:200 in Odyssey buffer with 0.1% Tween 20 (v/v)) and plates were incubated overnight (16 hours) at 4° C. Plates were washed 5 times with 100 μL per well of wash buffer. […] The plates were washed 5 times with 100 μL per well wash buffer then 2 times with 100 μL per well of water. Plates were allowed to dry at room temperature then imaged on the Licor Odyssey machine which measures integrated intensity at 700 nm and 800 nm wavelengths. Both 700 and 800 channels were scanned.
Calculations: First, the ratio for each well was determined by:
Each plate included fourteen control wells of DMSO only treatment (minimum activation) as well as fourteen control wells for maximum activation treated with 20 μM of a reference compound. The average of the ratio values for each control type was calculated and used to determine the percent activation for each test well in the plate. Reference compound was serially diluted three-fold in DMSO for a total of nine test concentrations, beginning at 20 μM. Percent activation was determined and EC30 curves were generated using triplicate wells per concentration of compound.

The target in experiment [2] is T1, Full-length human PRMT6 (Homo sapiens, UniProt Q96LA8).
T1 construct: Flag-PRMT6-His was eluted with 200 ug/ml FLAG peptide in the same buffer; made in house; host or cells: HEK 293F cells (BacMam virus, pFastBacMam)
T1 sequence (Q96LA8 with tags, fused parts or gaps): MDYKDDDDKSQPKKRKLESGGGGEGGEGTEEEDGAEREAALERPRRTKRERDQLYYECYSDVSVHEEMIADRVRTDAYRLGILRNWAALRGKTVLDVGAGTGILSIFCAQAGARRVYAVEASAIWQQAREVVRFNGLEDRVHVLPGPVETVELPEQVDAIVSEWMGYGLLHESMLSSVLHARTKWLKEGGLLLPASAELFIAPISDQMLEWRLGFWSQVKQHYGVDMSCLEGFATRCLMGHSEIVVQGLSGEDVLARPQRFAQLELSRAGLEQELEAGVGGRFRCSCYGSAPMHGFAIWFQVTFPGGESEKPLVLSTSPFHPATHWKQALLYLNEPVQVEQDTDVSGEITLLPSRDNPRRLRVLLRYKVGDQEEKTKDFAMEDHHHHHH
The experiment is described as follows: PRMT6 biochemical assay (3H-SAM Flashplate, peptide substrate). From the text: General Materials. S-adenosylmethionine (SAM), S-adenosylhomocysteine (SAH), bicine, Tween20, dimethylsulfoxide (DMSO), bovine skin gelatin (BSG), sodium butyrate and Tris(2-carboxyethyl)phosphine hydrochloride solution (TCEP) were purchased from Sigma-Aldrich at the highest level of purity possible. ^3H-SAM was purchase from American Radiolabeled Chemicals with a specific activity of 80 Ci/mmol. 384-well streptavidin Flashplates were purchased from PerkinElmer.
Substrates. Peptide representative of human histone H4 residues 36-50 was synthesized with an N-terminal linker-affinity tag motif and a C-terminal amide cap by 21st Century Biochemicals.
The amplified gene was subcloned into pFastBacMam (Viva Biotech).
Protein Expression. Recombinant baculovirus were generated according to Bac-to-Bac kit instructions (Life Technologies). […] Infections were carried out at 37° C. for 48 hours, harvested by centrifugation, and stored at −80° C. for purification.
Protein Purification. […] Column was washed with 20 mM imidazole in the same buffer and Flag-PRMT6-His was eluted with 150 mM imidazole. Pooled fractions were dialysed against buffer Ni-A and further purified by anti-flag M2 affinity chromatography. Flag-PRMT6-His was eluted with 200 ug/ml FLAG peptide in the same buffer. Pooled fractions were dialysed in 20 mM Tris, 150 mM NaCl, 10% glycerol and 5 mM β-mercaptoethanol, pH 7.8.
(§1) General Procedure for PRMT6 Enzyme Assays on Peptide Substrates. The assays were all performed in a buffer consisting of 20 mM Bicine (pH=7.6), 1 mM TCEP, 0.005% BSG, and 0.002% Tween 20, prepared on the day of use. […] DMSO (1 ul) was added to Columns 11, 12, 23, 24, rows A-H for the maximum signal control and 1 ul of SAH, a known product and inhibitor of PRMT6, was added to columns 11, 12, 23, 24, rows I-P for the minimum signal control. A cocktail (40 ul) containing the PRMT6 enzyme was added by Multidrop Combi (Thermo-Fisher). The compounds were allowed to incubate with PRMT6 for 30 min at room temperature, then a cocktail (10 ul) containing SAM and peptide was added to initiate the reaction (final volume=51 ul). […] The assays were stopped by the addition of non-radiolabeled SAM (10 ul) to a final concentration of 400 uM, which dilutes the ^3H-SAM to a level where its incorporation into the peptide substrate is no longer detectable. 50 ul of the reaction in the 384-well polypropylene plate was then transferred to a 384-well Flashplate and the biotinylated peptides were allowed to bind to the streptavidin surface for at least 1 hour before being washed once with 0.1% Tween20 in a Biotek ELx405 plate washer. The plates were then read in a PerkinElmer TopCount plate reader to measure the quantity of ^3H-labeled peptide bound to the Flashplate surface, measured as disintegrations per minute (dpm) or alternatively, referred to as counts per minute (cpm).
(§2) Where dpm=disintegrations per minute, cmpd=signal in assay well, and min and max are the respective minimum and maximum signal controls.
(§3) Where top and bottom are the normally allowed to float, but may be fixed at 100 or 0 respectively in a 3-parameter fit. The Hill Coefficient normally allowed to float but may also be fixed at 1 in a 3-parameter fit. Y is the % inhibition and X is the compound concentration.

Experiment [3] deals with T2, Full-length human PRMT1 isoform 1 (Homo sapiens, UniProt Q99873).
T2 construct: GST-tagged PRMT1; made in house; host or cells: High Five insect cells (baculovirus, pFastBacI)
T2 sequence (Q99873 with tags, fused parts or gaps): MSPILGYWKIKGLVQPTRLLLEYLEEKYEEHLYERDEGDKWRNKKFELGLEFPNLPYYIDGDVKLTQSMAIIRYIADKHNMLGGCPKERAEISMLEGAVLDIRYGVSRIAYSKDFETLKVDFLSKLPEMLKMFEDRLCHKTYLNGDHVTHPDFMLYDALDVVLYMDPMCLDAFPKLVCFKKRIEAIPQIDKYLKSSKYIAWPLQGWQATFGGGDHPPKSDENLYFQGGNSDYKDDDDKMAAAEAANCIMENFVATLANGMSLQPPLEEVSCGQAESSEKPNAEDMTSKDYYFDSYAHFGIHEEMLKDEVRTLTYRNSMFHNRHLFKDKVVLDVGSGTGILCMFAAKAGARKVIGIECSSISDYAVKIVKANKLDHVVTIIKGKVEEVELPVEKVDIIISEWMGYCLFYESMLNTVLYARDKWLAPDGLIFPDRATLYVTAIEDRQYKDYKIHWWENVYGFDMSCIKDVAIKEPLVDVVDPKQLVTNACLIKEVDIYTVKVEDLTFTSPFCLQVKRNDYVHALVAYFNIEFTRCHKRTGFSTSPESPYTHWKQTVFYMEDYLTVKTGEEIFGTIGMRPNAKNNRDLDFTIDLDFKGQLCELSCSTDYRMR
The experiment is described as follows: PRMT1 biochemical assay (3H-SAM Flashplate, peptide substrate).
Description: General Materials. S-adenosylmethionine (SAM), S-adenosylhomocysteine (SAH), bicine, Tween20, dimethylsulfoxide (DMSO), bovine skin gelatin (BSG), and Tris(2-carboxyethyl)phosphine hydrochloride solution (TCEP) were purchased from Sigma-Aldrich at the highest level of purity possible. ^3H-SAM was purchase from American Radiolabeled Chemicals with a specific activity of 80 Ci/mmol. 384-well streptavidin Flashplates were purchased from PerkinElmer.
Protein Expression. Recombinant baculovirus were generated according to Bac-to-Bac kit instructions (Life Technologies). […] Infections were carried out at 27° C. for 48 hours, harvested by centrifugation, and stored at −80° C. for purification.
Protein Purification. […] GST-tagged PRMT1 was eluted with 50 mM Tris, 2 mM glutathione, pH 7.8, dialysed in buffer A and concentrated to 1 mg/mL.
as §1, with “PRMT1” for “PRMT6”, “PRMT1,” for “PRMT6,”, “300” for “400”
as §2, §3

Molecules are shown by their SMILES. Where only a bound is given, the exact number is not on record here.

For `CNCCN(C)Cc1n[nH]cc1-c1ccc(Oc2ccccc2)c(C#N)c1` [Compound 234], in experiment [1], the EC30 was under 3000 nM. In addition, the IC50 in experiment [2] and in experiment [3] was under 100 nM each time.

On to `CC(C)Cc1cccc(-c2n[nH]cc2CN(C)CCN)c1` [Compound 235], for which, in experiment [1], the EC30 is under 3000 nM. Besides, the IC50 in experiment [2] is 101 to 1000 nM; in experiment [3], under 100 nM.

For the compound `CNCCN(C)Cc1c[nH]nc1-c1ccc(OCCCO)cc1` [Compound 236], the EC30 in experiment [1] was under 3000 nM. Further, the IC50 in experiment [2] and in experiment [3] was under 100 nM each time.

For the compound `CNCCN(C)Cc1c[nH]nc1-c1ccc(Oc2ccccc2F)cc1` [Compound 237], the EC30 in experiment [1] is under 3000 nM. Also, the IC50 in experiment [2] and in experiment [3] was under 100 nM throughout.

`CNCCN(C)Cc1n[nH]cc1-c1ccc(Oc2cccc(OC)c2)cc1` [Compound 239]: in experiment [1], the EC30 is under 3000 nM. The 50% inhibitory concentration (IC50) in experiment [2] and in experiment [3] was under 100 nM throughout.

Turning to `CNCCN(C)Cc1n[nH]cc1-c1ccc(Oc2ccccc2)c(C(=O)NC)c1` [Compound 240], in experiment [1], the concentration for an effect of 30% (EC30) is 3010 to 12000 nM. Moreover, the IC50 in experiment [2] and in experiment [3] was under 100 nM throughout.

`CNCCN(C)Cc1n[nH]cc1-c1ccc(Oc2ccccc2)c(C(=O)N(C)C)c1` [Compound 241]: in experiment [1], the EC30 is 3010 to 12000 nM. In addition, the IC50 in experiment [2] and in experiment [3] was under 100 nM in each case.

Regarding `CNCCN(C)Cc1n[nH]cc1-c1cc(C(C)C)cc(C(C)C)c1` [Compound 242], the EC30 in experiment [1] is over 12000 nM. Besides, the IC50 in experiment [2] lay within 1010 to 3000 nM; in experiment [3] it was 101 to 1000 nM.

On to `CNCCN(C)Cc1cn(Cc2ccncc2)nc1-c1ccc(OC(C)C)cc1` [Compound 245], for which the EC30 in experiment [1] was under 3000 nM. Further, the IC50 was 101 to 1000 nM in experiment [2] and under 100 nM in experiment [3].

`CN(CCN)Cc1c[nH]nc1-c1ccc(Oc2ccccc2F)cc1` [Compound 259]: in experiment [1], the EC30 is under 3000 nM. For the same compound, the IC50 in experiment [2] and in experiment [3] was under 100 nM each time.

On to `CNCCN(C)Cc1c[nH]nc1-c1cc(OC(C)C)cc(C(C)C)c1` [Compound 260], for which, in experiment [1], the EC30 was 3010 to 12000 nM. For the same compound, the IC50 is 101 to 1000 nM in experiment [2] and under 100 nM in experiment [3].

Regarding `CNCCN(C)Cc1c[nH]nc1-c1ccc(Oc2cccc(C#N)c2)cc1` [Compound 261], the EC30 in experiment [1] is under 3000 nM. Moreover, the IC50 in experiment [2] and in experiment [3] was under 100 nM each time.

Regarding `CNCCN(C)Cc1c[nH]nc1-c1ccc(Oc2cccc(C(C)C)c2)cc1` [Compound 262], the EC30 in experiment [1] was under 3000 nM. The IC50 in experiment [2] and in experiment [3] was under 100 nM in each case.

`CNCCN(C)Cc1c[nH]nc1-c1ccc(Oc2cccc(C(=O)NC)c2)cc1` [Compound 263]: the EC30 in experiment [1] is under 3000 nM. Moreover, the IC50 in experiment [2] and in experiment [3] was under 100 nM in each case.

Regarding `CNCCN(C)Cc1c[nH]nc1-c1cc(Cl)c(OC(C)C)c(Cl)c1` [Compound 265, N^1-((3-(3,5-dichloro-4-isopropoxyphenyl)-1H-pyrazol-4-yl)methyl)-N^1,N^2-dimethylethane-1,2-diamine], the EC30 in experiment [1] is under 3000 nM. Also, the IC50 in experiment [2] and in experiment [3] was under 100 nM each time.

Regarding `CNCCN(C)Cc1nn(C)cc1-c1ccc(OCCCOC)cc1` [Compound 266], the EC30 in experiment [1] is over 12000 nM. The IC50 in experiment [2] was under 100 nM; in experiment [3] it was 101 to 1000 nM.

On to `CNCCN(C)Cc1n[nH]cc1-c1ccc(Oc2cccc(C#N)c2)cc1` [Compound 267], for which the EC30 in experiment [1] was under 3000 nM. Also, the IC50 in experiment [2] and in experiment [3] was under 100 nM in each case.

`CNCCN(C)Cc1n[nH]cc1-c1ccc(Oc2cccc(C(=O)NC)c2)cc1` [Compound 268]: the EC30 in experiment [1] lay in the range of 3010 to 12000 nM. The IC50 in experiment [2] and in experiment [3] was under 100 nM each time.

For `CNCCN(C)Cc1n[nH]cc1-c1ccc(Oc2cccc(F)c2)cc1` [Compound 270], the EC30 in experiment [1] was under 3000 nM. For the same compound, the IC50 in experiment [2] and in experiment [3] was under 100 nM throughout.

Take `CNCCN(C)Cc1n[nH]cc1-c1cc(CC(C)C)cc(CC(C)C)c1` [Compound 271]: the 30% effect concentration (EC30) in experiment [1] was over 12000 nM. For the same compound, the figures for the IC50 in experiment [2] and in experiment [3] were 101 to 1000 nM and under 100 nM, respectively.
